The source of these data is US5719291A, “Cyclohexane derivatives” (Hoffmann-La Roche Inc., priority 1991, dated 1998).

Assay in all cases: In vitro antifungal activity, MIC (Method A)
Holding throughout (format): cell-based

Assay [1] concerns Cryptococcus neoformans. The following applies: Cryptococcus neoformans, 72 h, 3 days, 27° C. On the procedure: (§1) The in vitro antifungal activities of representative compounds of the present invention were measured by determining the minimal inhibitory concentration (MIC), which is the concentration of an antifungal at which no fungal growth can be observed.
(§2) The MICs were determined by the microbroth dilution procedure according to NCCLS with the following minor modifications (Galgiani et al., Antimicrob. Agents Chemother., 33, 731 (1989). The medium was solidified with 0.2% low melting point agarose and buffered to pH 7.0 with 0.25%: K2 HPO4 in Yeast Nitrogen Base (Difco Lab.). Inoculum size was 1×10^5 cells/ml, and incubation was carried out for 3 days at 27° C. The MICs ([…]) are shown in Table 1. The reference compound is compound (IA) in U.S. Pat. No. 4,952,604. The compounds used are identified by reference to the Examples in which they were prepared.
(§3) The in vitro antifungal activities of the representative compounds of the present invention shown in Table 1 and Table 2 were measured by determining the minimal inhibitory concentrations (MIC: Method A) or 80% growth inhibition concentration (IC80 : Method B) respectively. MIC is defined as the concentration of an antifungal at which growth of fungi is not observed and IC80 is the concentration where cell turbidity measured at OD630 is reduced by 80%.
(§4) Antifungal activities were determined by either method A or B (see below) using microtest plates according NCCLS with minor modifications (Galgiani et at., Antimicrob. Agents Chemother. 33, 731 (1989)).
(§5) (Method A) The medium was solidified with 0.2% low melting point agarose and buffered to pH 7.0 with 0.25% K2 HPO4 in Yeast Nitrogen Base (Difco Lab.). Inoculum size was 1×10^5 cells/ml, and incubation was carried out for 3 days at 27° C. The reference compound is compound (IA) in U.S. Pat. No. 4,952,604.

For assay [2], the system named is Aspergillus fumigatus. To be noted: Aspergillus fumigatus, 72 h, 3 days, 27° C. Here is the method: as §1, §2, §3, §4, §5
The subject of assay [3] is Candida albicans. The following applies: Candida albicans, 72 h, 3 days, 27° C. Here is the method:
as §1, §2, §3, §4, §5

The mark [4] stands for this setting: pH 7, Cryptococcus neoformans CY1057, 1×10^5 cells/ml.
The mark [5] stands for this setting: pH 7, Cryptococcus neoformans CY1059, 1×10^5 cells/ml.
The mark [6] stands for this setting: pH 7, Cryptococcus neoformans CY1061, 1×10^5 cells/ml.
Where [7] appears, read: pH 7, Aspergillus fumigatus CF1003, 1×10^5 cells/ml.
[8] abbreviates: pH 7, Aspergillus fumigatus CF1004, 1×10^5 cells/ml.
[9] abbreviates: pH 7, Aspergillus fumigatus CF1023, 1×10^5 cells/ml.
Setting [10] is: pH 7, Candida albicans CY1002, 1×10^5 cells/ml.
The mark [11] stands for this setting: pH 7, Candida albicans CY1005, 1×10^5 cells/ml.
Setting [12] is: pH 7, Candida albicans CY3003, 1×10^5 cells/ml.

Values after ≈ are worked out from the molar mass of the structure shown. Where a name gives a salt, the structure may show the parent alone.

`CCCCCCCCO[C@@H]1CCC(C)(C)C[C@H]1CC(O)CN` (relative stereo) [Example 84, 1-[(1S^*,2R^*)-5,5-dimethyl-2-octyloxycyclohexyl]-3-amino-2-propanol]: the minimal inhibitory concentration (MIC) (as a rule, the lowest concentration that inhibits growth of the organism) in assay [1] (setting [4]) came out at 3.13 µg/mL (≈ 9.98 µM); in assay [1] (setting [5]), 6.25 µg/mL (≈ 19.9 µM); in assay [1] (setting [6]), 6.25 µg/mL (≈ 19.9 µM); in assay [2] (setting [7]), 25 µg/mL (≈ 79.7 µM); in assay [2] (setting [8]), 6.25 µg/mL (≈ 19.9 µM); in assay [2] (setting [9]), 6.25 µg/mL (≈ 19.9 µM). The MIC in assay [3] (setting [10]), in assay [3] (setting [11]) and in assay [3] (setting [12]) was 12.5 µg/mL (≈ 39.9 µM) each time.
Turning to `CCCCCCC/C=C\[C@@H]1OC[C@H](C)[C@H](OC)[C@H]1OC(=O)CN` [Example 1, (2S,3R,4S,5S)-4-methoxy-5-methyl-2-[(Z)-1-nonenyl]tetrahydro-2H-pyran-3-ylglycinate trifluoro acetic acid salt], the MIC in assay [1] (setting [4]) is 1.56 µg/mL; in assay [1] (setting [5]), 3.13 µg/mL; in assay [1] (setting [6]), 6.25 µg/mL; in assay [2] (setting [7]), 100 µg/mL; in assay [2] (setting [8]) it was 200 µg/mL; in assay [2] (setting [9]), 100 µg/mL. The MIC in assay [3] (setting [10]), in assay [3] (setting [11]) and in assay [3] (setting [12]) was 100 µg/mL in each case.
Consider `CCCCCCCCC[C@@H]1OC[C@H](C)[C@H](OC)[C@@H]1OC(=O)CN.O=CO` [Example 5, (2S,3R,4S,5S)-4-methoxy-5-methyl-2-nonyl-tetrahydro-2H-pyran-3-yl glycinate formic acid salt], for which the MIC was 12.5 µg/mL in assay [1] (setting [4]); 12.5 µg/mL in assay [1] (setting [5]); 25 µg/mL in assay [1] (setting [6]); 50 µg/mL in assay [2] (setting [7]); 100 µg/mL in assay [2] (setting [8]); 50 µg/mL in assay [2] (setting [9]). Moreover, the MIC in assay [3] (setting [10]) was 50 µg/mL; in assay [3] (setting [11]), 25 µg/mL; in assay [3] (setting [12]) it was 25 µg/mL.
As for `CCCCCCCC/C=C/[C@@H]1OC[C@H](C)[C@H](OC)[C@H]1OC(=O)CN.O=C(O)C(F)(F)F` [Example 6, (2S,3R,4S,5S)-2-[(E)-1-decenyl]-4-methoxy-5-methyltetrahydro-2H-pyran-3-yl glycinate trifluoroacetic acid salt], the MIC in assay [1] (setting [4]) is 12.5 µg/mL; in assay [1] (setting [5]), 12.5 µg/mL; in assay [1] (setting [6]) it was 25 µg/mL; in assay [2] (setting [7]), 12.5 µg/mL; in assay [2] (setting [8]), 12.5 µg/mL; in assay [2] (setting [9]), 6.25 µg/mL. The MIC in assay [3] (setting [10]), in assay [3] (setting [11]) and in assay [3] (setting [12]) was 100 µg/mL throughout.
Take `CO[C@@H]1[C@H](OC(=O)CN)[C@H](CCCC(C)CCCC(C)C)OC[C@@H]1C.O=C(O)C(F)(F)F` (stereo partly drawn) [Example 8, (2S,3R,4S,5S)-2-(4,8-dimethylnonyl)-4-methoxyl-5-methyltetrahydro-2H-pyran-3-yl glycinate trifluoroacetic acid salt]: the MIC in assay [1] (setting [4]) was found to be 12.5 µg/mL; in assay [1] (setting [5]) it was 12.5 µg/mL; in assay [1] (setting [6]), 12.5 µg/mL; in assay [2] (setting [7]) it was 50 µg/mL; in assay [2] (setting [8]), 100 µg/mL; in assay [2] (setting [9]) it was 50 µg/mL. Further, the MIC in assay [3] (setting [10]), in assay [3] (setting [11]) and in assay [3] (setting [12]) was 50 µg/mL in each case.
With `CCC/C=C/C=C/C=C/[C@@H]1OC[C@H](C)[C@H](OC)[C@H]1OC(=O)CN.O=CO` [Example 11, (2S,3R,4S,5S)-4-methoxy-5-methyl-2-[(1E,3E,5E)-1,3,5-nonatrienyl]tetrahydro-2H-pyran-3-yl glycinate formic acid salt], the MIC was found to be 6.25 µg/mL in assay [1] (setting [4]); 6.25 µg/mL in assay [1] (setting [5]); 25 µg/mL in assay [1] (setting [6]); 6.25 µg/mL in assay [2] (setting [7]); 6.25 µg/mL in assay [2] (setting [8]); 6.25 µg/mL in assay [2] (setting [9]). Moreover, the MIC in assay [3] (setting [10]) came to 200 µg/mL; in assay [3] (setting [11]) it was 200 µg/mL; in assay [3] (setting [12]) it was 100 µg/mL.
Consider `CCC/C=C/C=C/C=C\[C@@H]1OC[C@H](C)[C@H](OC)[C@H]1OC(=O)CN.O=CO` [Example 12, (2S,3R,4S,5S)-4-methoxy-5-methyl-2-[(1Z,3E,5E)-1,3,5-nonatrienyl]tetrahydro-2H-pyran-3-yl glycinate formic acid salt], for which the MIC was 1.56 µg/mL in assay [1] (setting [4]); 3.13 µg/mL in assay [1] (setting [5]); 6.25 µg/mL in assay [1] (setting [6]); 25 µg/mL in assay [2] (setting [7]); 12.5 µg/mL in assay [2] (setting [8]); 25 µg/mL in assay [2] (setting [9]). Further, the MIC in assay [3] (setting [10]) was 200 µg/mL; in assay [3] (setting [11]) it was above 200 µg/mL; in assay [3] (setting [12]) it was above 200 µg/mL.
`CCCCCCC/C=C\[C@@H]1OC[C@H](C)[C@H](OCCC)[C@H]1OC(=O)CN` [Example 22, (2S,3R,4S,5-S)-5-methyl-2-[(Z)-1-nonenyl]-4-prpoxy-tetrahydro-2H-pyran-3-ylglycinate trifluoroacetic acid salt]: the MIC in assay [1] (setting [4]) came out at 6.25 µg/mL; in assay [1] (setting [5]), 12.5 µg/mL; in assay [1] (setting [6]), 12.5 µg/mL; in assay [2] (setting [7]), 50 µg/mL; in assay [2] (setting [8]), 50 µg/mL; in assay [2] (setting [9]), 50 µg/mL. In addition, the MIC in assay [3] (setting [10]), in assay [3] (setting [11]) and in assay [3] (setting [12]) was 50 µg/mL in each case.
Consider `CCCCCCCCC[C@@H]1OC[C@H](C)[C@H](OCCC)[C@H]1OC(=O)CN` [Example 23, 2S,3R,4S,5S)-5-methyl-2-nonyl-4-propoxytetrahydro-2-H-pyran-3-yl glycinate trifluoroacetic acid salt], for which the MIC came out at 12.5 µg/mL in assay [1] (setting [4]); 12.5 µg/mL in assay [1] (setting [5]); 12.5 µg/mL in assay [1] (setting [6]); 50 µg/mL in assay [2] (setting [7]); 50 µg/mL in assay [2] (setting [8]); 50 µg/mL in assay [2] (setting [9]). Further, the results for the MIC in assay [3] (setting [10]), in assay [3] (setting [11]) and in assay [3] (setting [12]) were 25 µg/mL, 25 µg/mL and 50 µg/mL, respectively.
Consider `CCCCCCC/C=C\[C@@H]1OC[C@H](C)[C@H](OCC)[C@@H]1OC(=O)CN.O=C(O)C(F)(F)F` [Example 27, (2S,3R,4S,5S)-4-ethoxy-5-methyl-2-[(Z)-1-nonenyl]tetrahydro-2H-pyran-3-yl glycinate trifluoroacetic acid salt], for which the MIC in assay [1] (setting [4]) was determined as 6.25 µg/mL; in assay [1] (setting [5]), 12.5 µg/mL; in assay [1] (setting [6]), 12.5 µg/mL; in assay [2] (setting [7]) it was 50 µg/mL; in assay [2] (setting [8]), 100 µg/mL; in assay [2] (setting [9]) it was 50 µg/mL. In addition, the values for the minimum inhibitory concentration (MIC) in assay [3] (setting [10]), in assay [3] (setting [11]) and in assay [3] (setting [12]) were 100 µg/mL, 100 µg/mL and 50 µg/mL, respectively.
Turning to `CCCCCCC/C=C/[C@@H]1OC[C@H](C)C[C@H]1OC(=O)CN.O=C(O)C(F)(F)F` [Example 28, (2S,3R,5R)-5-methyl-2-[(E)-1-nonenyl]tetrahydro-2H-pyran-3-yl glycinate trifluoroacetic acid salt], the MIC in assay [1] (setting [4]) came to 3.13 µg/mL; in assay [1] (setting [5]), 3.13 µg/mL; in assay [1] (setting [6]), 12.5 µg/mL; in assay [2] (setting [7]) it was 50 µg/mL; in assay [2] (setting [8]), 50 µg/mL; in assay [2] (setting [9]), 25 µg/mL. Moreover, the MIC in assay [3] (setting [10]), in assay [3] (setting [11]) and in assay [3] (setting [12]) was 50 µg/mL each time.
Regarding `CCCCCCC/C=C/[C@@H]1OC[C@@H](OCc2ccccc2)[C@H](OC)[C@@H]1OC(=O)CN.O=C(O)C(F)(F)F` [Example 31, (2S,3R,4S,5R)-5-benzyloxy-4-methoxy-2-[(E)-1-nonenyl]tetra-hydro-2H-pyran-3-yl glycinate trifluoroacetic acid salt], the MIC in assay [1] (setting [4]) was determined as 6.25 µg/mL; in assay [1] (setting [5]) it was 12.5 µg/mL; in assay [1] (setting [6]), 12.5 µg/mL; in assay [2] (setting [7]), 100 µg/mL; in assay [2] (setting [8]) it was 200 µg/mL; in assay [2] (setting [9]) it was 50 µg/mL. Further, the figures for the MIC in assay [3] (setting [10]), in assay [3] (setting [11]) and in assay [3] (setting [12]) were 50 µg/mL, 50 µg/mL and 25 µg/mL, respectively.
As for `CCCCCCC/C=C\[C@@H]1OC[C@@H](C)[C@H](OC)[C@H]1OC(=O)CN.O=C(O)C(F)(F)F` [Example 42, (2S,3R,4S,5R)-4-methoxy-5-methyl-2-[(Z)-1-nonenyl]tetrahydro-2H-pyran-3-yl glycinate trifluoroacetic acid salt], the MIC in assay [1] (setting [4]) turned out to be 3.13 µg/mL; in assay [1] (setting [5]) it was 3.13 µg/mL; in assay [1] (setting [6]) it was 12.5 µg/mL; in assay [2] (setting [7]), 100 µg/mL; in assay [2] (setting [8]), 100 µg/mL; in assay [2] (setting [9]), 50 µg/mL. Moreover, the values for the MIC in assay [3] (setting [10]), in assay [3] (setting [11]) and in assay [3] (setting [12]) were 100 µg/mL, 50 µg/mL and 50 µg/mL, respectively.
